Measurements from patent publication US10766914B2, “DNA alkylating agents” (OBI PHARMA, INC., priority 2015, dated 2020).

Assays:
[1] = system: HCCC-9810; assay: TH2870 sensitivity in liver cancer cells; format: cell-based, human; conditions: AKR1C3 expression ++++
[2] = system: LIXC-003; assay: TH2870 sensitivity in liver cancer cells; format: cell-based, human; conditions: AKR1C3 expression ++++
[3] = Example 4-I body weight change, H460 xenograft study; format: in vivo, female nude mice (nu/nu); conditions: iv, Q7D × 3
Experimental: Cells were mixed with Matrigel (50% with exception for 30% in the H460) and 0.2 ml per mouse were subcutaneously implanted to the flank area of the animals. When tumor size reached 100-150 250 mm3, mice were randomized into experimental or vehicle groups with 10 mice/group and treatment was started (Day 1). The tested compounds were formulated in 5% DMSO in D5W. The regimens employed in the examples include IP, QD×5/wk (5 days on, 2 days off) as one cycle, for a total of 2 cycles; IP, once; IP, weekly for total 3 weeks; and IV, weekly for 3 weeks. Tumor growth and body weight were measured twice a week. Tumor volume was calculated as (length×width2)/2. Drug efficacy was assessed as Tumor Growth Inhibition (TGI) and Tumor Growth Delay (TGD). TGI was defined as (1−ΔT/ΔC)×100, where ΔT/ΔC presented the ratio of the change in mean (or median, if variation within the group was relatively large) tumor volume of the treated group and of the control group. TGD was calculated as the extra days for the treated tumor to reach 500 mm3 or 1000 mm3 as compared to the control group. Animals were culled when individual tumor size reached over 2000 mm3 or mean tumor volume exceeded 1000 mm3 in the group. Data are expressed as the mean±SEM. One-way analysis of variance with Dunnett post comparison test (GraphPad Prism 4) or two-tailed student's t-test were used for analysis. A P level <0.05 was considered statistically significant.
The compound TH-2870 was tested in a H460 model. The compound was dosed follows. 1.5, 5 or 15 mg/kg, IV, weekly for 3 weeks at 250 mm^3 tumors on day 1 (10 animals per group average tumor volume), comparing with docetaxel. The antitumor effects and the safety of administration are graphically illustrated below.

[4] = system: DU145; assay: TH2870 sensitivity in prostate cancer cell lines; format: cell-based; conditions: Homo sapiens, DU-145
[5] = system: HLF; assay: TH2870 sensitivity in liver cancer cells; format: cell-based, human; conditions: AKR1C3 expression /
[6] = system: SNU-387; assay: TH2870 sensitivity in liver cancer cells; format: cell-based, human; conditions: AKR1C3 expression ++++
[7] = system: LIXC-066; assay: TH2870 sensitivity in liver cancer cells; format: cell-based, human; conditions: AKR1C3 expression ++
[8] = system: SK-HEP-1; assay: TH2870 sensitivity in liver cancer cells; format: cell-based, human
[9] = target: T1, AKR1C3 (Homo sapiens, UniProt P42330); assay: Activation by the aldoketo reductase AKR1C3 (% remaining, LC/MS/MS); format: biochemical; conditions: for % Remaining: 5 μM, 25 μg/mL AKR1C3, 2 mM NADPH, 37° C.
T1 sequence (P42330 1-323): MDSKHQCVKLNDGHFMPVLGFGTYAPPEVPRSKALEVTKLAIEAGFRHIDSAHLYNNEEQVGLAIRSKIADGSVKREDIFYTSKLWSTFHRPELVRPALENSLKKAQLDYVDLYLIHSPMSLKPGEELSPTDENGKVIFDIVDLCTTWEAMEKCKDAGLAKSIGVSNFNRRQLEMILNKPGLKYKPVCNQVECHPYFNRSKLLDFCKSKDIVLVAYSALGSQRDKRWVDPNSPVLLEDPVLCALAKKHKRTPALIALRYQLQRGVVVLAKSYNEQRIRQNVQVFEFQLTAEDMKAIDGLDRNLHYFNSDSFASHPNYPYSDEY
Experimental: Recombinant human AKR1C3 was diluted to 25 μg/mL in phosphate buffered saline (PBS), pH 7.4 (37° C.), containing 2 mM NADPH. TH2870 or progesterone (positive control) in 30% methanol/70% water was added to the reaction mixture at a final concentration of 5 μM and incubated at 37° C. for 120 minutes. At various times up to 120 min, 50 μL of the reaction mixture was taken and 200 μL acetonitrile containing propranolol as internal standard was added, vortex-mixed and centrifuged for 10 min. The resulting supernatant (5 μL) was injected into a LC/MS/MS for quantitation of % remaining TH2870 and progesterone. The compounds were tested in duplicate.

[10] = system: C3A; assay: TH2870 sensitivity in liver cancer cells; format: cell-based, human; conditions: AKR1C3 expression ++++
[11] = system: A375 melanoma human tumor xenograft; assay: Example 4-C antitumor efficacy, ectopic A375 melanoma xenograft model; format: in vivo, female nude mice (nu/nu); conditions: qd × 5 × 2, ip
[12] = Homo sapiens, read-out: RelIC50

CC(OP(=O)(N1CC1)N1CC1)c1ccc([N+](=O)[O-])c(Oc2cccc(C(=O)N(C)C)c2)c1 (centres unmarked) [Compound 2870]
Max Inhibition % [1]: 95.4%
Max Inhibition % [2]: 44.6%
IC50 [2, 12]: 5.4 nM
Max. BW loss % ([3]; 1.5 mg/kg): 7.6%
Max. BW loss % ([3]; 5 mg/kg): 7.6%
Max. BW loss % ([3]; 15 mg/kg): 5.8%
IC50 [4]: 42.9 nM
Max Inhibition % [5]: 22.5%
IC50 [5, 12]: > 1000 nM
Max Inhibition % [6]: 102.8%
Max Inhibition % [7]: 75.4%
IC50 [7, 12]: 94.1 nM
Max Inhibition % ([8]; AKR1C3 expression /): 44.3%
IC50 ([8]; Homo sapiens, SK-HEP1, AKR1C3 expression /, read-out: RelIC50): > 1000 nM
% Remaining ([9]; 0 min): 100%
% Remaining ([9]; 15 min): 0.232%
% Remaining ([9]; 30 min): 0.0101%
% Remaining ([9]; 60 min): 0.00%
% Remaining ([9]; 90 min): 0.00%
% Remaining ([9]; 120 min): 0.00%
disappearance in the presence of AKR1C3 ([9]; in words): rapid disappearance
Max Inhibition % [10]: 98.1%
IC50 [10, 12]: 7.1 nM
TGD 500 ([11]; 20 mpk): 24 days
TGD 1000 ([11]; 20 mpk): >18 days
inhibition in vivo at 20 mg/kg ([11]; Mus musculus, A-375, 20 mpk, read-out: TGI): 98%
